Measured values published in PubChem BioAssay (NCI).
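These data come from cells grown in 96-well plates and exposed to compound for 48 hours at five concentrations. At the TGI there is no net growth.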

Assays:
Test in all cases: DTP human tumour cell line panel, 48 h
[1] = test system: NCI/ADR-RES ovarian
[2] = test system: HCT-15 colon
[3] = test system: DU-145 prostate
[4] = test system: 786-0 renal
[5] = test system: KM12 colon
[6] = test system: OVCAR-4 ovarian
[7] = test system: UO-31 renal
[8] = test system: HCT-116 colon
[9] = test system: RPMI-8226 leukemia
[10] = test system: SW-620 colon
[11] = test system: OVCAR-3 ovarian
[12] = test system: SNB-19 CNS
[13] = test system: A549 NSCLC
[14] = test system: SK-OV-3 ovarian
[15] = test system: HL-60(TB) leukemia
[16] = test system: MCF7 breast
[17] = test system: OVCAR-8 ovarian
[18] = test system: NCI-H460 lung
[19] = test system: NCI-H522 lung
[20] = test system: HOP-62 NSCLC
[21] = test system: MALME-3M melanoma
[22] = test system: NCI-H23 lung
[23] = test system: SK-MEL-2 melanoma
[24] = test system: M14 melanoma
[25] = test system: COLO 205 colon
[26] = test system: MDA-MB-231 breast
[27] = test system: SF-295 CNS
[28] = test system: U251 CNS
[29] = test system: SF-539 CNS
[30] = test system: MOLT-4 leukemia
[31] = test system: RXF 393 renal
[32] = test system: IGROV1 ovarian
[33] = test system: HS 578T breast
[34] = test system: PC-3 prostate
[35] = test system: MDA-N
[36] = test system: LOX IMVI melanoma
[37] = test system: UACC-257 melanoma
[38] = test system: EKVX NSCLC
[39] = test system: A498 renal
[40] = test system: CAKI-1 renal
[41] = test system: UACC-62 melanoma
[42] = test system: T-47D breast
[43] = test system: TK-10 renal
[44] = test system: SN12C renal
[45] = test system: HCC-2998 colon
[46] = test system: CCRF-CEM leukemia
[47] = test system: OVCAR-5 ovarian
[48] = test system: SK-MEL-5 melanoma
[49] = test system: HT29 colon
[50] = test system: SK-MEL-28 melanoma
[51] = test system: BT-549 breast
[52] = test system: SF-268 CNS
[53] = test system: MDA-MB-435
[54] = test system: ACHN renal

Measured: TGI

O=C1C2C(C(=O)N1c1ccccc1)C1(c3ccccc3)CCC2(C(=O)c2ccccc2)O1 (centres undefined)
> 10 µM: all assays above
